Measurements reported in publication PMC7914897, “Cytotoxic Potential of a-Azepano- and 3-Amino-3,4-SeCo-Triterpenoids” (International Journal of Molecular Sciences, 2021).
Where two headings read alike, the source gives them in different places.

What was measured:
[1] = tested on: Leukemia subpanel; test: cells; conditions: Homo sapiens
[2] = tested on: OVCAR-3 (Ovarian cancer); test: cells; conditions: Homo sapiens
[3] = tested on: Renal Cancer subpanel; test: NCI-60 screen, subpanel; conditions: Homo sapiens
[4] = tested on: A549/ATCC (NSC lung cancer); test: NCI-60 screen (SRB, 48 h); conditions: Homo sapiens
[5] = tested on: HOP-62 (NSC lung cancer); test: NCI-60 screen (SRB, 48 h); conditions: Homo sapiens
[6] = tested on: NCI-H226 (NSC lung cancer); test: NCI-60 screen (SRB, 48 h)
[7] = tested on: NCI-H23 (NSC lung cancer); test: NCI-60 screen (SRB, 48 h); conditions: Homo sapiens
[8] = tested on: NCI-H322M (NSC lung cancer); test: NCI-60 screen (SRB, 48 h); conditions: Homo sapiens
[9] = tested on: NCI-H522 (NSC lung cancer); test: NCI-60 screen (SRB, 48 h); conditions: Homo sapiens
[10] = tested on: COLO 205 (Colon cancer); test: NCI-60 screen (SRB, 48 h); conditions: Homo sapiens
[11] = tested on: HCC-2998 (Colon cancer); test: NCI-60 screen (SRB, 48 h); conditions: Homo sapiens
[12] = tested on: HCT-15 (Colon cancer); test: NCI-60 screen (SRB, 48 h); conditions: Homo sapiens
[13] = tested on: SF-268 (CNS cancer); test: NCI-60 screen (SRB, 48 h); conditions: Homo sapiens
[14] = tested on: SNB-19 (CNS cancer); test: NCI-60 screen (SRB, 48 h); conditions: Homo sapiens
[15] = tested on: SK-MEL-5 (Melanoma); test: NCI-60 screen (SRB, 48 h); conditions: Homo sapiens
[16] = tested on: UACC-257 (Melanoma); test: NCI-60 screen (SRB, 48 h); conditions: Homo sapiens
[17] = tested on: UACC-62 (Melanoma); test: NCI-60 screen (SRB, 48 h); conditions: Homo sapiens
[18] = tested on: IGROV1 (Ovarian cancer); test: NCI-60 screen (SRB, 48 h); conditions: Homo sapiens
[19] = tested on: OVCAR-5 (Ovarian cancer); test: NCI-60 screen (SRB, 48 h); conditions: Homo sapiens
[20] = tested on: OVCAR-8 (Ovarian cancer); test: NCI-60 screen (SRB, 48 h); conditions: Homo sapiens
[21] = tested on: CAKI-1 (Renal cancer); test: NCI-60 screen (SRB, 48 h); conditions: Homo sapiens
[22] = tested on: TK-10 (Renal cancer); test: NCI-60 screen (SRB, 48 h); conditions: Homo sapiens
[23] = tested on: PC-3 (Prostate cancer); test: NCI-60 screen (SRB, 48 h); conditions: Homo sapiens
[24] = tested on: DU-145 (Prostate cancer); test: NCI-60 screen (SRB, 48 h); conditions: Homo sapiens
[25] = tested on: MDA-MB-31/ATCC (Breast cancer); test: NCI-60 screen (SRB, 48 h); conditions: Homo sapiens
[26] = tested on: HS 578T (Breast cancer); test: NCI-60 screen (SRB, 48 h); conditions: Homo sapiens
[27] = tested on: panel of approximately 60 cancer cell lines; test: NCI-60 screen (SRB, 48 h), full panel

C[C@H]1[C@H](C)CC[C@]2(CO)CC[C@]3(C)C(=CC[C@@H]4[C@@]5(C)CCCNC(C)(C)[C@@H]5CC[C@]43C)[C@H]12 [Compound 4, azepanouvaol]
IC (TGI) ([1]; 48 h, read-out: TGI MG_MID): 3.28 µM
GI50 ([1]; read-out: GI50 MG_MID): 1320 nM
CC50 ([1]; read-out: LC50 MG_MID): 8.02 µM
GI50 ([2]; OVCAR-3): 1830 nM
IC (TGI) ([2]; OVCAR-3, 48 h, read-out: TGI): 3.42 µM
CC50 ([2]; OVCAR-3, read-out: LC50): 6.39 µM
IC (TGI) ([3]; 48 h, read-out: TGI MG_MID): 3.2 µM
GI50 ([3]; read-out: GI50 MG_MID): 1470 nM
CC50 ([3]; read-out: LC50 MG_MID): 6.11 µM
GI50 ([4]; A549): 1740 nM
IC (TGI) ([4]; A549, 48 h, read-out: TGI): 3.28 µM
CC50 ([4]; A549, read-out: LC50): 6.16 µM
GI50 ([5]; HOP-62): 1810 nM
IC (TGI) ([5]; HOP-62, 48 h, read-out: TGI): 3.49 µM
CC50 ([5]; HOP-62, read-out: LC50): 6.52 µM
GI50 ([6]; Homo sapiens, NCI-H226): 2070 nM
IC (TGI) ([6]; Homo sapiens, NCI-H226, 48 h, read-out: TGI): 4.25 µM
Growth % of the Most Sensitive Cell Lines ([6]; NCI-H226, 1 dose 10 µM): −99.04%
GI50 ([7]; NCI-H23): 1650 nM
IC (TGI) ([7]; NCI-H23, 48 h, read-out: TGI): 3.26 µM
CC50 ([7]; NCI-H23, read-out: LC50): 6.47 µM
GI50 [8]: 1730 nM
IC (TGI) ([8]; 48 h, read-out: TGI): 3.19 µM
CC50 ([8]; read-out: LC50): 5.89 µM
GI50 ([9]; NCI-H522): 1710 nM
IC (TGI) ([9]; NCI-H522, 48 h, read-out: TGI): 3.32 µM
CC50 ([9]; NCI-H522, read-out: LC50): 6.43 µM
GI50 ([10]; COLO 205): 1740 nM
IC (TGI) ([10]; COLO 205, 48 h, read-out: TGI): 3.46 µM
CC50 ([10]; COLO 205, read-out: LC50): 6.86 µM
GI50 ([11]; HCC 2998): 1750 nM
IC (TGI) ([11]; HCC 2998, 48 h, read-out: TGI): 3.46 µM
CC50 ([11]; HCC 2998, read-out: LC50): 6.85 µM
GI50 ([12]; HCT-15): 1390 nM
IC (TGI) ([12]; HCT-15, 48 h, read-out: TGI): 2.75 µM
CC50 ([12]; HCT-15, read-out: LC50): 5.52 µM
GI50 ([13]; SF-268): 1790 nM
IC (TGI) ([13]; SF-268, 48 h, read-out: TGI): 3.5 µM
CC50 ([13]; SF-268, read-out: LC50): 6.84 µM
GI50 ([14]; SNB-19): 1860 nM
IC (TGI) ([14]; SNB-19, 48 h, read-out: TGI): 3.43 µM
CC50 ([14]; SNB-19, read-out: LC50): 6.31 µM
GI50 ([15]; SK-MEL-5): 1700 nM
IC (TGI) ([15]; SK-MEL-5, 48 h, read-out: TGI): 3.09 µM
CC50 ([15]; SK-MEL-5, read-out: LC50): 5.62 µM
GI50 ([16]; UACC-257): 1950 nM
IC (TGI) ([16]; UACC-257, 48 h, read-out: TGI): 3.7 µM
CC50 ([16]; UACC-257, read-out: LC50): 7.01 µM
GI50 ([17]; UACC-62): 1850 nM
IC (TGI) ([17]; UACC-62, 48 h, read-out: TGI): 3.35 µM
CC50 ([17]; UACC-62, read-out: LC50): 6.06 µM
GI50 ([18]; IGROV-1): 1850 nM
IC (TGI) ([18]; IGROV-1, 48 h, read-out: TGI): 3.72 µM
CC50 ([18]; IGROV-1, read-out: LC50): 7.45 µM
GI50 ([19]; OVCAR-5): 1690 nM
IC (TGI) ([19]; OVCAR-5, 48 h, read-out: TGI): 3.18 µM
CC50 ([19]; OVCAR-5, read-out: LC50): 5.99 µM
GI50 ([20]; OVCAR-8): 1960 nM
IC (TGI) ([20]; OVCAR-8, 48 h, read-out: TGI): 3.61 µM
CC50 ([20]; OVCAR-8, read-out: LC50): 6.67 µM
GI50 ([21]; CAKI-1): 1620 nM
IC (TGI) ([21]; CAKI-1, 48 h, read-out: TGI): 3.23 µM
CC50 ([21]; CAKI-1, read-out: LC50): 6.43 µM
GI50 ([22]; TK-10): 1840 nM
IC (TGI) ([22]; TK-10, 48 h, read-out: TGI): 3.32 µM
CC50 ([22]; TK-10, read-out: LC50): 5.97 µM
GI50 ([23]; PC-3): 1550 nM
IC (TGI) ([23]; PC-3, 48 h, read-out: TGI): 2.97 µM
CC50 ([23]; PC-3, read-out: LC50): 5.66 µM
GI50 ([24]; DU-145): 1720 nM
IC (TGI) ([24]; DU-145, 48 h, read-out: TGI): 3.14 µM
CC50 ([24]; DU-145, read-out: LC50): 5.75 µM
GI50 [25]: 1880 nM
IC (TGI) ([25]; 48 h, read-out: TGI): 3.48 µM
CC50 ([25]; read-out: LC50): 6.43 µM
GI50 [26]: 2050 nM
IC (TGI) ([26]; 48 h, read-out: TGI): 4.86 µM
CC50 ([26]; read-out: LC50): 32.6 µM
Positive Cytostatic Effect (cell lines with percent growth 0 to 50 / total) ([27]; 1 dose 10 µM): 18/59
Positive Cytotoxic Effect (cell lines with percent growth < 0 / total) ([27]; 1 dose 10 µM): 40/59
number of cancer cell lines the compound was active against ([27]; 1 dose 10 µM): 57 cell lines
activity at 10 µM ([27]; Homo sapiens, 48 h, read-out: Mean Growth, %): -31.9%
activity at 10 µM ([27]; Homo sapiens, 48 h, read-out: Range of Growth, %): -99 to 23%
IC (TGI) ([27]; Homo sapiens, 48 h, read-out: TGI MG_MID60, average over all cell lines): 3.31 µM
GI50 ([27]; Homo sapiens, read-out: GI50 MG_MID60): 1650 nM
GI50 ([27]; Homo sapiens, read-out: GI50 against all human tumor cell lines): < 3000 nM
GI50 ([27]; Homo sapiens, read-out: GI50 against the most sensitive cell lines): 200 to 940 nM
CC50 ([27]; Homo sapiens, read-out: LC50 MG_MID60, average over all cell lines): 7.64 µM
